Laboratory results reported in patent US10538498B2, “1,3,4-oxadiazole sulfonamide derivative compounds as histone deacetylase 6 inhibitor, and the pharmaceutical composition comprising the same” (Chong Kun Dang Pharmaceutical Corp., priority 2015, dated 2020).

Target: T1, human recombinant HDAC6 (Homo sapiens, UniProt Q9UBN7)
T1 construct: purchased Calbiochem 382180
T1 sequence (Q9UBN7 1-1215): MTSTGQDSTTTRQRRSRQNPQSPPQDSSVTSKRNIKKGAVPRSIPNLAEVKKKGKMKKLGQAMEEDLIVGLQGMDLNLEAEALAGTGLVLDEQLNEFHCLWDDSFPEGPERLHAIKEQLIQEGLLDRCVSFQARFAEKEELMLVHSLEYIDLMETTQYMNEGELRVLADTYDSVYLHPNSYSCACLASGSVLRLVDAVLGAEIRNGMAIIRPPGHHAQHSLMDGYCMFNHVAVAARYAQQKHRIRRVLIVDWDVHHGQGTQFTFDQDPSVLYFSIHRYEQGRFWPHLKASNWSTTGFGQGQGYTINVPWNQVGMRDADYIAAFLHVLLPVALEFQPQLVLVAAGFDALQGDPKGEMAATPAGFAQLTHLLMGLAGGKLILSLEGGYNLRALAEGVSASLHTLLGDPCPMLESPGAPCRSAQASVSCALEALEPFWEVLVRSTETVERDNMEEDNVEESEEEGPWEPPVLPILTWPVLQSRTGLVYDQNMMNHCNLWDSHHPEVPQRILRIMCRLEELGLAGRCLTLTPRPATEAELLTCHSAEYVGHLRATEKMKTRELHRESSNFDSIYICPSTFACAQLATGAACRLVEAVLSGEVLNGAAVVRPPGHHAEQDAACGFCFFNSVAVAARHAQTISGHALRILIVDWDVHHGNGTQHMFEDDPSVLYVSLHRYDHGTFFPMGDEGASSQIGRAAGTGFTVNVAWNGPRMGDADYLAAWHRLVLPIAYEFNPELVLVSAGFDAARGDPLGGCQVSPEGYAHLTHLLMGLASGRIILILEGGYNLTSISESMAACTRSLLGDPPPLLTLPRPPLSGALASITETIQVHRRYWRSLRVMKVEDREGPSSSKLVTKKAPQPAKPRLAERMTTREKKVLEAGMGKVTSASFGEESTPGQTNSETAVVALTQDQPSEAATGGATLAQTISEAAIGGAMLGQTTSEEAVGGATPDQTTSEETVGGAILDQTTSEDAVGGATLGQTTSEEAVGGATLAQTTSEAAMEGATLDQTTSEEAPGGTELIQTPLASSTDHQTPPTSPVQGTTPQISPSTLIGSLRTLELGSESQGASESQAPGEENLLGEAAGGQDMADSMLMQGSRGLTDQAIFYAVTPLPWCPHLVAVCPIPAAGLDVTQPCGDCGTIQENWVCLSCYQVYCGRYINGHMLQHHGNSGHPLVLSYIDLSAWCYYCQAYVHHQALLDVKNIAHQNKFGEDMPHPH
Assay: HDAC6 enzyme activity inhibition assay (HDAC Fluorimetric Drug Discovery Kit)
Assay type: biochemical
Settings: for HDAC6 selectivity (fold): HDAC1 vs HDAC6; for IC50: same protocol as the HDAC1 enzyme activity test
Procedure, shortened: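 Human recombinant enzyme, 0.3 μg, incubated with 10 μM Fluor de Lys-SIRT1 substrate and 5-fold compound dilutions at 30° C for 60 min. Developer II added for 30 min, then fluorescence read (Ex 360/Em 460). IC50 values derived from the fluorescence data.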

Compound | HDAC6 selectivity (fold) | IC50 [nM]
CC(=O)N1Cc2ccc(N(Cc3ccc(-c4nnc(C(F)F)o4)cc3)S(C)(=O)=O)cc2C1 [Compound 11732, N-(2-acetylisoindolin-5-yl)-N-(4-(5-(difluoromethyl)-1,3,4-oxadiazol-2-yl)benzyl)methanesulfonamide] | 184 | 542
CN1Cc2ccc(N(Cc3ccc(-c4nnc(C(F)F)o4)cn3)S(C)(=O)=O)cc2C1 [Compound 11733, N-((5-(5-(difluoromethyl)-1,3,4-oxadiazol-2-yl)pyridin-2-yl)methyl)-N-(2-methylisoindolin-5-yl)methanesulfonamide] | 203 | 490
CS(=O)(=O)N(Cc1ccc(-c2nnc(C(F)F)o2)cn1)c1ccc2c(c1)CN(C1COC1)C2 [Compound 11735, N-((5-(5-(difluoromethyl)-1,3,4-oxadiazol-2-yl)pyridin-2-yl)methyl)-N-(2-(oxetan-3-yl)isoindolin-5-yl)methanesulfonamide] | 123 | 809
CC(=O)N1Cc2ccc(N(Cc3ccc(-c4nnc(C(F)F)o4)cn3)S(C)(=O)=O)cc2C1 [Compound 11736, N-(2-acetylisoindolin-5-yl)-N-((5-(5-(difluoromethyl)-1,3,4-oxadiazol-2-yl)pyridin-2-yl)methyl)methanesulfonamide] | 216 | 461
O=S(=O)(CCN1CCC1)N(Cc1ccc(-c2nnc(C(F)F)o2)cc1)c1ccccc1 [Compound 11738, 2-(azetidin-1-yl)-N-(4-(5-(difluoromethyl)-1,3,4-oxadiazol-2-yl)benzyl)-N-phenylethanesulfonamide] | 1466 | 68.2
CS(=O)(=O)N(Cc1ccc(-c2nnc(C(F)F)o2)cc1)c1nc2ccccc2s1 [Compound 11740, N-(benzo[d]thiazol-2-yl)-N-(4-(5-(difluoromethyl)-1,3,4-oxadiazol-2-yl)benzyl)methanesulfonamide] | 188 | 531
CS(=O)(=O)N(Cc1ccc(-c2nnc(C(F)F)o2)cc1)c1ncco1 [Compound 11741, N-(4-(5-(difluoromethyl)-1,3,4-oxadiazol-2-yl)benzyl)-N-(oxazol-2-yl)methanesulfonamide] | 57 | 1740
CC(C)n1ncc2ccc(N(Cc3ccc(-c4nnc(C(F)F)o4)cc3)S(C)(=O)=O)cc21 [Compound 11742, N-(4-(5-(difluoromethyl)-1,3,4-oxadiazol-2-yl)benzyl)-N-(1-isopropyl-1H-indazol-6-yl)methanesulfonamide] | 418 | 239
CC(C)c1nc2ccc(N(Cc3ccc(-c4nnc(C(F)F)o4)cc3)S(C)(=O)=O)cc2s1 [Compound 11744, N-(4-(5-(difluoromethyl)-1,3,4-oxadiazol-2-yl)benzyl)-N-(2-isopropylbenzo[d]thiazol-6-yl)methanesulfonamide] | 188 | 531
Cn1c(=O)n(C)c2cc(N(Cc3ccc(-c4nnc(C(F)F)o4)cc3)S(C)(=O)=O)ccc21 [Compound 11745, N-(4-(5-(difluoromethyl)-1,3,4-oxadiazol-2-yl)benzyl)-N-(1,3-dimethyl-2-oxo-2,3-dihydro-1H-benzo[d]imidazol-5-yl) methanesulfonamide] | 432 | 231
Cc1nn(C)c2ccc(N(Cc3ccc(-c4nnc(C(F)F)o4)cc3)S(C)(=O)=O)cc12 [Compound 11746, N-(4-(5-(difluoromethyl)-1,3,4-oxadiazol-2-yl)benzyl)-N-(1,3-dimethyl-1H-indazol-5-yl)methanesulfonamide] | 784 | 127
CS(=O)(=O)N(Cc1ccc(-c2nnc(C(F)F)o2)cc1F)c1ccc2c(c1)CCC2 [Compound 11747, N-(4-(5-(difluoromethyl)-1,3,4-oxadiazol-2-yl)-2-fluorobenzyl)-N-(2,3-dihydro-1H-inden-5-yl)methanesulfonamide] | 1050 | 95.2
CS(=O)(=O)N(Cc1ccc(-c2nnc(C(F)F)o2)cc1F)[C@@H]1CCc2ccccc21 [Compound 11748, (R)—N-(4-(5-(difluoromethyl)-1,3,4-oxadiazol-2-yl)-2-fluorobenzyl)-N-(2,3-dihydro-1H-inden-1-yl)methanesulfonamide] | 230 | 433
CN1CCc2nc(N(Cc3ccc(-c4nnc(C(F)F)o4)cc3)S(C)(=O)=O)sc2C1 [Compound 11750, N-(4-(5-(difluoromethyl)-1,3,4-oxadiazol-2-yl)benzyl)-N-(5-methyl-4,5,6,7-tetrahydrothiazolo[5,4-c]pyridin-2-yl)methanesulfonamide] | 77 | 1290
O=S(=O)(CCN1CCCOCC1)N(Cc1ccc(-c2nnc(C(F)F)o2)cc1)c1ccccc1 [Compound 11752, N-(4-(5-(difluoromethyl)-1,3,4-oxadiazol-2-yl)benzyl)-2-(1,4-oxazepan-4-yl)-N-phenylethane-1-sulfonamide] | 868 | 115

Continued by falling IC50, values first:

HDAC6 selectivity (fold) | IC50 [nM] | Compound
132 | 755 | CC(C)N1Cc2ccc(N(Cc3ccc(-c4nnc(C(F)F)o4)cn3)S(C)(=O)=O)cc2C1 [Compound 11734, N-((5-(5-(difluoromethyl)-1,3,4-oxadiazol-2-yl)pyridin-2-yl)methyl)-N-(2-isopropylisoindolin-5-yl)methanesulfonamide]
148 | 675 | CS(=O)(=O)N(Cc1ccc(-c2nnc(C(F)F)o2)cc1)c1nccs1 [Compound 11739, N-(4-(5-(difluoromethyl)-1,3,4-oxadiazol-2-yl)benzyl)-N-(thiazol-2-yl)methanesulfonamide]
255 | 391 | CS(=O)(=O)N(Cc1ccc(-c2nnc(C(F)F)o2)cc1F)[C@H]1CCc2ccccc21 [Compound 11749, (S)—N-(4-(5-(difluoromethyl)-1,3,4-oxadiazol-2-yl)-2-fluorobenzyl)-N-(2,3-dihydro-1H-inden-1-yl)methanesulfonamide]
1170 | 85.4 | O=C(CN1CCN(CCS(=O)(=O)N(Cc2ccc(-c3nnc(C(F)F)o3)cc2)c2ccccc2)CC1)N1CCOCC1 [Compound 11751, N-(4-(5-(difluoromethyl)-1,3,4-oxadiazol-2-yl)benzyl)-2-(4-(2-morpholino-2-oxoethyl)piperazin-1-yl)-N-phenylethane-1-sulfonamide]
1440 | 69.4 | CN1CCCN(CCS(=O)(=O)N(Cc2ccc(-c3nnc(C(F)F)o3)cc2)c2ccccc2)CC1 [Compound 11737, N-(4-(5-(difluoromethyl)-1,3,4-oxadiazol-2-yl)benzyl)-2-(4-methyl-1,4-diazepan-1-yl)-N-phenylethanesulfonamide]
1466 | 68.2 | CCn1ncc2ccc(N(Cc3ccc(-c4nnc(C(F)F)o4)cc3)S(C)(=O)=O)cc21 [Compound 11743, N-(4-(5-(difluoromethyl)-1,3,4-oxadiazol-2-yl)benzyl)-N-(1-ethyl-1H-indazol-6-yl)methanesulfonamide]
